Test [1] relates to Kasumi-1 (c-Kit N822K mutant type). Kind of test: In vitro growth inhibition (GI50), Kasumi-1. The conditions noted are these: Homo sapiens, Cell lines of leukemia, read-out: GI 50 Kasumi-1 Kit (N822K). The test is classed as cell-based. The essentials: (§1)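 After 3–5 days of treatment (top concentration 5,000 nM, serially diluted 2- or 10-fold to 0.01 nM, solvent ≤1%), viability was read by CCK8 at OD450. Growth rate was normalised to the time-zero and solvent-control wells, and GI50 was derived from the curve. Cultures in RPMI1640 + 10% FBS.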

Test [2] deals with KG-1 (expressing FGFR1OP2-FGFR1 fusion protein). Kind of test: In vitro growth inhibition (GI50), KG-1. The test is classed as cell-based. The conditions noted are these: Homo sapiens; Cell lines of leukemia; read-out: GI 50 KG-1 FGFR1OP 2-FGFR1.
Test [3] deals with MOLM-13 (FLT3 ITD+/− mutant type). In words: In vitro growth inhibition (GI50), MOLM-13. Conditions: Homo sapiens, MOLM-13; Cell lines of leukemia; read-out: GI 50 MOLM-13 FLT3 (ITD+/−). The test is classed as cell-based, human.
Test [4] deals with MV4-11 (FLT3 ITD+/+ mutant type). Kind of test: In vitro growth inhibition (GI50), MV4-11. It counts as cell-based, human. Conditions: Homo sapiens, MV4-11; Cell lines of leukemia; read-out: GI 50 MV4-11 FLT3 (ITD +/+).
A further test relates to U937 (FLT3 wild-type). Kind of test: In vitro growth inhibition (GI50), U937. The test is classed as cell-based. Conditions: Homo sapiens, U-937; Cell lines of leukemia; read-out: GI 50 U937 FLT 3(WT).
In another test the test system is HL-60 (FLT3 wild type). In words: In vitro growth inhibition (GI50), HL-60. The test is classed as cell-based. Conditions: Homo sapiens, Cell lines of leukemia, read-out: GI 50 HL60 FLT3 (WT). The essentials:
as §1

Test [5] deals with RAMOS (positive expression of Brutons tyrosine protein kinase). Kind of test: In vitro growth inhibition (GI50), RAMOS. The conditions noted are these: Homo sapiens, Cell lines of leukemia, read-out: GI 50 Ramos BTK. The test is classed as cell-based.
The test system of test [6] is K562 (FLT3 negative expression, positive expression of BCR-ABL fusion protein). Kind of test: In vitro growth inhibition (GI50), K562. It counts as cell-based. The conditions noted are these: Homo sapiens, Cell lines of leukemia, read-out: GI 50 K562 BCR-ABL.
The test system of test [7] is OCI-AML3 (NPMc+ mutant type). Kind of test: In vitro growth inhibition (GI50), OCI-AML3. The test is classed as cell-based. The conditions noted are these: Homo sapiens, OCI-AML-3; Cell lines of leukemia; read-out: GI 50 OCI- AML3 NPMc+.
For another test, the system named is RS4; 11 (FLT3 wild type). In words: In vitro growth inhibition (GI50), RS4; 11. It counts as cell-based, human. Conditions: Homo sapiens, RS4-11; Cell lines of leukemia; read-out: GI 50 RS4: 11 FLT3 (WT).

Regarding `CC(C)(C)c1cc(NC(=O)Nc2ccc(-n3cnc4cc(OC(=O)N5CCOCC5)ccc43)cc2)no1` [Compound 15, 1-{4-[3-(5-tert-butyl-isoxazol-3-yl)-carbamido]-phenyl}-1H-benzimidazol-5-yl morpholin-4-carboxylate], the GI50 in [1] was above 1 µM; in test [2], above 1 µM; in [3] it was 0.0001 to 0.001 µM; in [4] it was 0.0001 to 0.001 µM; with U937 (FLT3 wild-type), above 1 µM; in the test on HL-60 (FLT3 wild type), above 1 µM. In addition, the GI50 (in test [5]; in test [6]; in test [7]; with RS4; 11 (FLT3 wild type)) was above 1 µM each time.
On to `CN1CCN(c2ccc3ncn(-c4ccc(NC(=O)Nc5cc(C(C)(C)C)on5)cc4)c3c2)CC1` [Compound 29, 1-(5-tert-butyl-isoxazol-3-yl)-3-{4-[6-(4-methyl-piperazin-1-yl)-benzimidazol-1-yl]-phenyl}-urea], for which the GI50 in test [1] is above 1 µM; in test [2], above 1 µM; in test [3], 0.01 to 0.1 µM; in [4] it was 0.01 to 0.1 µM; in the test on U937 (FLT3 wild-type), above 1 µM; with HL-60 (FLT3 wild type) it was above 1 µM. Moreover, the GI50 (in test [5]; in [6]; in [7]; in the test with RS4; 11 (FLT3 wild type)) was above 1 µM each time.
As for `Cc1nc2ccccc2n1-c1ccc(NC(=O)Nc2cc(C(C)(C)C)on2)cc1` [Compound 35, 1-(5-tert-butyl-isoxazol-3-yl)-3-[4-(2-methyl-benzimidazol-1-yl)-phenyl]-urea], the GI50 in test [1] is above 1 µM; in [2] it was above 1 µM; in test [3], 0.1 to 1 µM; in test [4], 0.1 to 1 µM; in the test on U937 (FLT3 wild-type) it was above 1 µM; with HL-60 (FLT3 wild type), above 1 µM. The GI50 is above 1 µM in test [5], 0.1 to 1 µM in test [6], above 1 µM in [7] and 0.1 to 1 µM in the test with RS4; 11 (FLT3 wild type).
As to `CC(C)(C)c1cc(NC(=O)Nc2ccc(-n3cnc4cc(OCCN5CCCCC5)ccc43)cc2)no1` [Compound 17, 1-(5-tert-butyl-isoxazol-3-yl)-3-{4-[5-(2-piperidin-1-yl-ethoxyl)-benzimidazol-1-yl]-phenyl}-urea], the GI50 in test [1] was in the range of 0.1 to 1 µM; in test [2], 0.1 to 1 µM; in [3] it was 0.0001 to 0.001 µM; in [4], 0.0001 to 0.001 µM; in the test with U937 (FLT3 wild-type), 0.1 to 1 µM; in the test on HL-60 (FLT3 wild type), 0.1 to 1 µM. Also, the GI50 in test [5] was 0.1 to 1 µM; in [6], 0.1 to 1 µM; in [7], above 1 µM; in the test with RS4; 11 (FLT3 wild type), 0.1 to 1 µM.
In the case of `Nc1cc(C2CC2)nn1C(=O)Nc1ccc(-n2cnc3ccccc32)cc1` [Compound 114, 5-amino-3-cyclopropylpyrazol-1-formic acid (4-benzimidazol-1-yl-phenyl)-amide], the GI50 in test [1] is above 1 µM; in test [2], above 1 µM; in [3], 0.1 to 1 µM; in test [4] it was 0.1 to 1 µM; in the test on U937 (FLT3 wild-type), above 1 µM; in the test with HL-60 (FLT3 wild type) it was above 1 µM. In addition, the GI50 (in test [5]; in test [6]; in test [7]; with RS4; 11 (FLT3 wild type)) was above 1 µM throughout.
Take `CC(C)(C)c1cc(N)n(C(=O)Nc2ccc(-n3cnc4cc(C(F)(F)F)ccc43)cc2)n1` [Compound 126, 5-amino-3-tert-butyl-pyrazol-1-carboxylic acid [4-(5-trifluoromethyl-benzimidazol-1-yl)-phenyl]-amide]: the GI50 was above 1 µM in test [1]; above 1 µM in test [2]; 0.01 to 0.1 µM in test [3]; 0.01 to 0.1 µM in test [4]; above 1 µM with U937 (FLT3 wild-type); above 1 µM in the test with HL-60 (FLT3 wild type). Also, the GI50 (in [5]; in test [6]; in test [7]; with RS4; 11 (FLT3 wild type)) was above 1 µM each time.
As to `COc1ncnc2ncn(-c3ccc(NC(=O)Nc4cc(C(C)(C)C)on4)cc3)c12` [Compound 57, 1-(5-tert-butyl-isoxazol-3-yl)-3-[4-(6-methoxyl-purin-7-yl)-phenyl]-urea], the GI50 is above 1 µM in test [1]; above 1 µM in [2]; 0.01 to 0.1 µM in [3]; 0.01 to 0.1 µM in test [4]; above 1 µM in the test on U937 (FLT3 wild-type); above 1 µM in the test on HL-60 (FLT3 wild type). In addition, the GI50 (in test [5]; in test [6]; in [7]; in the test on RS4; 11 (FLT3 wild type)) was above 1 µM each time.
For the compound `Cn1nc(C(C)(C)C)cc1NC(=O)Nc1ccc(-n2cnc3ccccc32)cc1` [Compound 100, 1-(4-benzimidazol-1-yl-phenyl)-3-(5-tert-butyl-2-methyl-2H-pyrazol-3-yl)-urea], the GI50 in test [1] was above 1 µM; in test [2], above 1 µM; in [3], 0.0001 to 0.001 µM; in test [4] it was 0.0001 to 0.001 µM; in the test on U937 (FLT3 wild-type), above 1 µM; with HL-60 (FLT3 wild type), above 1 µM. Moreover, the GI50 (in test [5]; in test [6]; in test [7]; in the test on RS4; 11 (FLT3 wild type)) was above 1 µM in each case.
Consider `CC(C)(C)c1cc(NC(=O)Nc2ccc(-n3cnc4cc(F)ccc43)cc2)no1` [Compound 22, 1-(5-tert-butyl-isoxazol-3-yl)-3-[4-(5-fluoro-benzimidazol-1-yl)-phenyl]-urea], for which the GI50 is above 1 µM in test [1]; above 1 µM in [2]; 0.0001 to 0.001 µM in [3]; 0.0001 to 0.001 µM in test [4]; above 1 µM in the test with U937 (FLT3 wild-type); above 1 µM with HL-60 (FLT3 wild type). Moreover, the GI50 (in test [5]; in test [6]; in test [7]; in the test on RS4; 11 (FLT3 wild type)) was above 1 µM each time.
Turning to `Cc1cc(F)cc2ncn(-c3ccc(NC(=O)Nc4cc(C(C)(C)C)n[nH]4)cc3)c12` [Compound 97, 1-(5-tert-butyl-2H-pyrazol-3-yl)-3-[4-(5-fluoro-7-methyl-benzimidazol-1-yl)-phenyl]-urea], the GI50 in [1] was above 1 µM; in test [2], above 1 µM; in test [3] it was 0.001 to 0.01 µM; in test [4], 0.001 to 0.01 µM; with U937 (FLT3 wild-type), above 1 µM; in the test on HL-60 (FLT3 wild type), above 1 µM. In addition, the GI50 (in test [5]; in test [6]; in test [7]; in the test on RS4; 11 (FLT3 wild type)) was above 1 µM throughout.
For the compound `CCCCN(CCCC)CCCOc1ccc2c(c1)ncn2-c1ccc(NC(=O)Nc2cc(C(C)(C)C)n[nH]2)cc1` [Compound 82, 1-(5-tert-butyl-2H-pyrazol-3-yl)-3-{4-[5-(3-dibutylaminopropoxy)-benzimidazol-1-yl]-phenyl}-urea], the GI50 is above 1 µM in [1]; above 1 µM in test [2]; 0.0001 to 0.001 µM in test [3]; 0.0001 to 0.001 µM in test [4]; 0.1 to 1 µM in the test with U937 (FLT3 wild-type); 0.1 to 1 µM in the test with HL-60 (FLT3 wild type). Moreover, the GI50 in [5] is 0.1 to 1 µM; in [6] it was above 1 µM; in test [7] it was above 1 µM; in the test on RS4; 11 (FLT3 wild type), above 1 µM.

For the origin of these results see patent US10647680B2, “Urea compound, preparation method therefor and medical use thereof” (Ancureall Pharmaceutical (Shanghai) Co., Ltd., priority 2016, dated 2020).
